Reference: US12097174B2, “Methods and agents that enhance myogenic progenitor cell engraftment” (President and Fellows of Harvard College, priority 2018, dated 2024)

Legend:
[1] = system: mouse satellite cells; assay: Calcium imaging in Fluo-4 AM-loaded mouse satellite cells (AUC of signal intensity); assay type: cell-based; conditions: 1-5 μM of LPA, 2.5-10 μM of NFA; 1,500 cells/well
Experimental: First, to establish optimal conditions, cells were sorted by FACS into 384 well plates at 10,000, 5,000, 1,500, or 500 cells per well, with 8 replicates for each cell density. […] Cells were again incubated with Fluo4 AM for 45 minutes at 37° C. followed by imaging. Different concentrations of LPA, NFA, or both compounds combined, along with DMSO (vehicle control) and ionomycin (direct calcium ionophore), were added 60 seconds after the beginning of imaging to quantify both baseline calcium ion concentrations and calcium flux in response to the different treatment conditions. Calcium concentrations were calculated as area under the curve (AUC) of signal intensity and compared these values across different concentrations of each compound (FIG. 25A).
Satellite cells were isolated from wild-type mice (FVB/NJ) and sorted into 384 well plates in culture media. The cells were incubated overnight at 37° C. The next day, the cells were incubated with Fluo-4 AM (Thermo Fisher Sci F14201), a fluorescent calcium ion indicator, for 45 minutes at 37° C., followed by imaging of the entire plate with the FDSS 7000 ex functional drug screening system (Hamamatsu) in the BCH assay development and screening facility.

[2] = system: mouse satellite cells; assay: Mouse satellite cell transplantation into pre-injured TA muscle, engraftment by bioluminescence imaging (BLI); assay type: in vivo; conditions: for BLI radiance (mean±SEM): 10 μM NFA (n=13) or 5 μM LPA (n=17) prior to transplant, vehicle 8,214,000±1,462,346; for engraftment efficiency of mouse satellite cells: 4 h at 37° C. with 10 μM NFA or 5 μM LPA, 5000 cells per recipient
Experimental: Specifically, BLI radiance (mean±SEM) for muscle precursors treated with 10 μM NFA or 5 μM LPA prior to transplant were 27,236,923±6,849,754 p/s (n=13) and 25,637,059±4,410,195 p/s (n=17), respectively, in comparison to 8,214,000±1,462,346 p/s (n=15) vehicle-treated cells (1-way ANOVA between vehicle-treated group and either NFA or LPA treated group, p≤0.01) (FIGS. 8A-8C).
To this end, mouse satellite cells were again sorted from double-transgenic (luc+GFP+) mice and exposed them to NFA, LPA, or vehicle (DMSO) under the optimal dose conditions established using the fish model (see above; 4 h. treatment at 37° C. with 10 μM of NFA or 5 μM of LPA), prior to transplant. Compound-treated cells were then recovered and, after washing out the media containing the compounds (NFA, LPA or DMSO), counted and transplanted at 5000 cells per recipient into the pre-injured TA muscles of non-transgenic FVB hosts. The kinetics of muscle engraftment were subsequently assessed by weekly BLI imaging of transplanted limbs. Similar to the fish experiments, both NFA and LPA enhanced the engraftment efficiency of mouse satellite cells in these in vivo transplantation assays (FIGS. 14C and 14D), indicating conserved effects of these pro-myogenic compounds on mammalian muscle precursor cells.
Mouse satellite cells were isolated as previously described (Maesner et al., 2016; Sherwood et al., 2004; Xu et al., 2013). 25 μl (0.03 mg/ml) of cardiotoxin (CDTX) (Latoxan) was injected 24 h prior to transplantation into the TA muscle of recipient mice (FVB/NJ). Luc-GFP tagged satellite cells were isolated and plated on a collagen/laminin-coated plate and treated with NFA (10 μM), LPA (5 μM) or DMSO, as the vehicle control, in culture media for 4 hours at 37° C. The culture media contained 78% F10 (GIBCO), 20% horse serum (Atlanta Biologics), 1% penicillin-streptomycin (Invitrogen), 1% GlutaMAX (Invitrogen), and 5 ng/ml bFGF (Sigma). After 4 hours, cells were washed with DPBS, harvested, and counted, followed by transplantation of 5000 satellite cells intramuscularly into the CDTX pre-injured TA of FVB recipients.
Mice were anesthetized with isoflurane and weighed. 150 mg/kg of luciferin (Goldbio) was administered by IP injection. BLI was acquired using IVIS Spectrum every 2 minutes, at F-stop=1.0 at 5 min after luciferin injection. The acquired images were analyzed and the highest captured radiance in the region of interest (ROI) was measured.

[3] = system: mouse satellite cells; assay: RNA sequencing of treated mouse satellite cells; assay type: cell-based
Source text: To gain insight into the mechanisms through which LPA and NFA treatment might enhance donor cell engraftment in vertebrate muscle, RNA sequencing analysis were next performed in treated ZeMPCs and in mouse satellite cells. Comparison of differential gene expression in NFA-treated or LPA-treated cells to vehicle-treated cells indicated upregulation of calcium-dependent genes in response to these compounds in both ZeMPCs (FIG. 21) and mouse satellite cells (FIGS. 15A and 15B).
Isolated mouse muscle satellite cells and ZeMPCs were used to prepare RNA after in vitro chemical treatment. Total RNA was isolated by the micro RNeasy kit (QIAGEN). cDNA was prepared using SMART Seq v4 Ultra Low RNA-Seq kit for 48 reactions (Takara) and a Nextera kit was used for library construction. Sequencing data FASTQ files for samples were processed in tophat-cufflinks workflow in a Linux server operating system to output gene-level abundance estimates and statistical inference as gene-level raw counts. Those raw counts for samples were input into the cuffdiff for differential gene expression analysis. The assigned GEO accession number for the RNA sequencing data is GSE143801.

Compound	calcium ion concentrations (AUC of signal intensity) relative to vehicle-treated controls [1]	BLI radiance (mean±SEM) [2]	engraftment efficiency of mouse satellite cells [2]	expression of calcium-dependent genes vs vehicle-treated cells [3]	expression of myoblast fusion related genes, including myomaker (Tmem8c) and Ccl8 [3]
O=C(O)c1cccnc1Nc1cccc(C(F)(F)F)c1 [NFA, niflumic acid]	increased significantly	27,236,923±6,849,754 p/s	enhanced	upregulation	
lysophosphatidic acid [LPA]	increased significantly	25,637,059±4,410,195 p/s	enhanced	upregulation	upregulated
